Holding throughout (type): cell-based, human
In one assay the test system is HCT116 cells. Kind of assay: siRNA sensitization of Enzastaurin drug response, CellTiter Glo cell viability. The following applies: for IC50: Homo sapiens, HCT-116, 72 h, 72 h Enzastaurin. How it is done:
HCT116 cells are obtained from American Tissue Culture Collection, ATCC (Rockville, Md., USA) and cultured in McCoy's 5A medium supplemented with 2 mM L-glutamine and 10% fetal bovine serum (FBS), in a humidified 37° C. incubator with 5% CO2. Plates (384-well) are pre-printed using 2 siRNAs per target in the Druggable Genome v2 Library (Qiagen) such that each well contains 13 nM of an individual siRNA duplex. High throughput reverse transfections are performed by adding transfection agent Lipofectamine 2000 (Invitrogen) and 1500 cells diluted in McCoy's 5A medium supplemented with 2 mM L-glutamine and 2% FBS into each well following a standard reverse transfection protocol. Twenty-four hours post transfection, each assay plate is treated with or without 5 concentrations (0-10 μM) of Enzastaurin in 1% DMSO. Seventy-two hours later, cell viability is measured using chemiluminescence based CellTiter Glo (Promega) assay readout, according to manufacturer's recommendations. UBB siRNA (Qiagen) is the positive cell killing control and All Star Non-silencing (NS-AS) or green fluorescent protein (GFP) is the negative control. Raw signal values are normalized to untreated control wells to compare across plates. These are fit to a 4-parameter logistical model to determine IC50 values. A ‘shift’ in IC50 with respect to the negative control (described above) is calculated as: (IC50 target−IC50 control) divided by IC50 control.
(In general: Cellular ATP, detected with luciferase, serves as a proxy for viable cell number.)

Another assay has as its system HCT116 (HDAC 2 w.t). The experiment in a line: Enzastaurin drug dose response, CellTiter Glo cell viability. The following applies: HCT116 cells. How it is done: (§1) The human colon cancer cell line, HCT116 (HDAC 2 w.t), and RKO (HDAC 2+/−), a cell line containing a nonsense mutation resulting in null protein expression of HDAC2 relative to HCT116, are obtained from American Tissue Culture Collection, ATCC (Rockville, Md., USA) and cultured in the ATCC recommended growth medium supplemented with 2 mM L-glutamine and 10% FBS, in a humidified 37° C. incubator with 5% CO2. Drug dose response experiments are performed by seeding 1000-2000 cells diluted in McCoy's 5A medium containing 25 mM N-2-hydroxyethylpiperazine-N′-2-ethanesulfonic acid (HEPES), 2 mM L-glutamine and 2% fetal bovine serum (FBS) followed by treatment with or without serial dilutions of Enzastaurin (0-100 μM) in 1% DMSO. Seventy-two or ninety-six hours later, cell viability is measured using chemiluminescence based CellTiter Glo (Promega) assay readout, according to manufacturer's recommendations. Raw signal values are normalized to untreated control and analyzed by non-linear curve fitting in GraphPad Prism (La Jolla, Calif., USA).

A further assay concerns RKO (HDAC 2+/−). Described as above. The following applies: RKO cells. How it is done:
as §1

Usually IC50 stands for the midpoint of a concentration-inhibition curve. For `Cn1cc(C2=C(c3cn(C4CCN(Cc5ccccn5)CC4)c4ccccc34)C(=O)NC2=O)c2ccccc21` [Enzastaurin, 3-(1-methyl-1H-indol-3-yl)-4-[1-[1-(pyridin-2-ylmethyl)piperidin-4-yl]-1H-indol-3-yl]-1H-pyrrole-2,5-dione], in the assay on HCT116 cells (HCT116, three siRNAs that target HDAC2), the “shift in IC50 values relative to negative control” value is on record as above 2 fold. In addition, in the assay on HCT116 cells (HCT116 treated with Enzastaurin and HDAC2 siRNA relative to negative controls and either condition alone, data not shown), the “cell killing in high content images” value is reported as “higher degree of cell killing”. Besides, the concentration for half-maximal inhibition (IC50) was 3690 nM in the assay on HCT116 cells (HCT116, HDAC2 siRNA: None (negative control)); 1360 nM with HCT116 cells (HCT116 transfected with HDAC2 siRNA SEQ ID NO: 1); 1680 nM in the assay on HCT116 cells (HCT116 transfected with HDAC2 siRNA SEQ ID NO: 2); 2010 nM with HCT116 cells (HCT116 transfected with HDAC2 siRNA SEQ ID NO: 3); 8340 nM in the assay on HCT116 (HDAC 2 w.t) (Homo sapiens, HCT-116, 72 or 96 h); 3560 nM in the assay on RKO (HDAC 2+/−) (Homo sapiens, 72 or 96 h). Besides, the results for the maximum killing effect with HCT116 (HDAC 2 w.t) and with RKO (HDAC 2+/−) were 50-60% and 95-100%, respectively.

For the origin of these results see patent US20110288032A1, “ENZASTAURIN FOR THE TREATMENT OF CANCER” (ELI LILLY AND COMPANY, priority 2008, published 2011).
